{
  "source": "paper PMC9820303",
  "about": "“^αN-Acetyl β-Endorphin Is an Endogenous Ligand of σ1Rs That Regulates Mu-Opioid Receptor Signaling by Exchanging G Proteins for σ2Rs in σ1R Oligomers” (International Journal of Molecular Sciences, 2022)",
  "tested_on": "CD1 mice (wild-type and σ1R−/−)",
  "assay": "Supraspinal analgesia, warm water (52 °C) tail-flick test",
  "type": "in vivo, mouse",
  "conditions": "for effect of exogenous σ1R ligands on β-End 1–31 analgesia: 3 nmol icv 20 min before 0.5 nmol β-End 1–31 icv; for effect on DAMGO analgesia: icv 20 min before DAMGO (0.1 nmol icv), evaluated 15 min after DAMGO; for effect on analgesia of the DOR agonists DPDPE and D-Ala^2 Deltorphin II: icv 20 min before DPDPE (10 nmol) or D-Ala2-deltorphin II (10 nmol) icv; for effect of C-terminal peptides on β-End 1–31 and morphine analgesia: icv 20 min before 0.5 nmol β-End 1–31 or 10 nmol morphine icv; for effect on β-End 1–31 analgesia, nonphysiological fragments: 1 nmol icv 20 min before 0.5 nmol β-End 1–31 icv, 6 mice",
  "protocol": "Upper panel: the withdrawal thresholds of the contralateral and ipsilateral paws were measured before (indicated as 0) and up to 14 days after surgery. […] Middle panel: 0.3 and 3 nmol of ^αN-acetyl β-End 1–31 were administered icv 7 days after surgery, and the nociceptive threshold was evaluated at the indicated postinjection intervals (in minutes). For every time interval studied in min or days, * indicates a significant difference from the group that received saline instead of ^αN-acetyl β-End 1–31; ϕ significant difference from the effect of 3 nmol ^αN-acetyl β-End 1–31. […] All data are presented as the mean ± SD of six mice. ANOVA followed by the Holm–Sidak multiple comparisons test, p < 0.05, 1-β > 0.80. […] Upper panel: wild-type mice were injected icv with saline, ^αN-acetyl β-End 1–31 (1 nmol/mouse) or the combination of the σ1R agonist PPCC (3 nmol/mouse) plus ^αN-acetyl β-End 1–31 20 min before morphine and β-End 1–31. Analgesia was evaluated by the warm water (52 °C) tail-flick test at the interval postinjection corresponding to their peak effect, 30 min. Lower panel: σ1R^−/− mice received 1 nmol ^αN-acetyl β-End 1–31, 20 min before morphine and β-End 1–31 and analgesia was evaluated as described above. Eight mice were used per strain and treatment. * Significant difference with respect to the group treated with morphine or β-End 1–31 alone. ANOVA followed by the Holm–Sidak multiple comparisons test, p < 0.05, 1-β > 0.80.\nFigure 3 Effect of physiological β-End 1–31 derivatives on morphine and β-End 1–31 analgesia. […] (A) The mice were icv-injected with 25 nmol of β-End 1–26, β-End 1–27 and ^αN-acetylated derivatives 20 min before icv 0.5 nmol β-End 1–31. Analgesia was determined at the indicated postinjection intervals. (B) CD1 wild-type and σ1R^−/− mice were administered C terminal peptide sequences 27–31, 28–31 and 30–31 of β-End 1–31 through an icv injection 20 min before 0.5 nmol of the whole β-End 1–31 and morphine (10 nmols) were injected icv. […] (C) A series of exogenous σ1R ligands (3 nmol) were icv-injected 20 min before 0.5 nmol β-End 1–31 was administered via icv in wild-type mice. The σ1R antagonist S1RA was also icv-injected before β-End 1–31 was administered icv in σ1R^−/− mice. (D) The effects of several doses of S1RA on morphine analgesia were studied in wild-type and σ1R^−/− mice. […] ANOVA followed by the Holm–Sidak multiple comparisons test, p < 0.05, 1-β > 0.80.\n(A) The effect of σ1R deletion on opioid- and cannabinoid-induced analgesia. Analgesic compounds were icv-injected into wild-type and σ1R^−/− mice, and analgesia was evaluated 30 min after morphine (3 nmol) and β-End 1–31 (0.5 nmol), 15 min after DAMGO (0.1 nmol) and DPDPE (10 nmol) and 10 min after WIN55,212-2 (15 nmol). The bars are the mean ± SD of eight mice per strain and treatment. * Significant difference with respect to the effect of the analgesic substance in the wild-type group. ANOVA followed by the Holm–Sidak multiple comparisons test, p < 0.05, 1-β > 0.80. (B) Coprecipitation of G proteins with MORs. Solubilized mouse brain cortical membranes enriched in synaptosomes (SBM) from CD1 wild-type (WT) and σ1R^−/− mice were solubilized with sonication in the presence of 1% NP-40. Non-soluble debris was eliminated, and the samples were then incubated overnight at 4 °C with affinity-purified biotinylated IgGs that were raised against extracellular regions of the MOR. Protein complexes that were immunoprecipitated with streptavidin agarose were extensively washed and then resolved by SDS-PAGE.",
  "data": [
    {"compound": "Br.Br.CN(C)CCN(C)CCc1ccc(Cl)c(Cl)c1", "note": "[BD1047, N′-[2-(3,4-dichlorophenyl)ethyl]-N,N,N′-trimethylethane-1,2-diamine;dihydrobromide, reference compound]", "values": [
      {"measurement": "effect of exogenous σ1R ligands on β-End 1–31 analgesia", "setting": "wild-type mice", "value": "diminished"}
    ]},
    {"compound": "COC(=O)[C@]1(c2ccc(C)cc2)C[C@@H]1CN1CCC(O)(c2ccccc2)CC1", "note": "[PPCC, (1R,2S/1S,2R)-2-[4-hydroxy-4-phenylpiperidin-1-yl)methyl]-1-(4-methylphenyl) cyclopropanecarboxylate, reference compound]", "values": [
      {"measurement": "effect of exogenous σ1R ligands on β-End 1–31 analgesia", "setting": "wild-type mice", "value": "did not alter the effect of β-End 1–31"},
      {"measurement": "effect on the antagonist activity of β-End C-terminal peptides", "setting": "PPCC 3 nmol icv 10 min before the β-End C-terminal peptides", "value": "prevented"},
      {"measurement": "effect on the impairment of morphine and β-End 1–31 analgesia by ^αN-acetyl β-End 1–31", "setting": "PPCC 3 nmol/mouse icv plus ^αN-acetyl β-End 1–31, wild-type mice", "value": "prevented the impairing effects"}
    ]},
    {"compound": "Cl.O=C(OCCN1CCOCC1)C1(c2ccccc2)CCCCC1", "note": "[PRE084, 2-(4-morpholinethyl)-1-phenylcyclohexanecarboxylate hydrochloride, reference compound]", "values": [
      {"measurement": "effect of exogenous σ1R ligands on β-End 1–31 analgesia", "setting": "wild-type mice", "value": "did not alter the effect of β-End 1–31"}
    ]},
    {"compound": "Cc1cc(OCCN2CCOCC2)nn1-c1ccc2ccccc2c1", "note": "[S1RA]", "values": [
      {"measurement": "effect of exogenous σ1R ligands on β-End 1–31 analgesia", "setting": "wild-type mice", "value": "diminished"},
      {"measurement": "effect on morphine analgesia, 3 nmol", "setting": "3 nmol icv, wild-type mice", "value": "produced the maximum increase"},
      {"measurement": "effect on morphine analgesia, 10 nmol", "setting": "10 nmol icv, wild-type mice", "value": "barely altered morphine effects"},
      {"measurement": "effect on DAMGO analgesia", "value": "enhanced DAMGO analgesia"},
      {"measurement": "effect on analgesia of the DOR agonists DPDPE and D-Ala^2 Deltorphin II", "value": "neither ^αN-acetyl β-End 1–31 nor S1RA altered the analgesic effects"},
      {"measurement": "effect on morphine analgesia", "setting": "icv before morphine, wild-type mice", "value": "enhanced morphine analgesia"}
    ]},
    {"compound": "KKGE [β-End 28–31, C-terminal tetrapeptide of β-End 1–31]", "values": [
      {"measurement": "effect of C-terminal peptides on β-End 1–31 and morphine analgesia", "setting": "wild-type mice", "value": "reduced the analgesic activity of β-End 1–31 and morphine"}
    ]},
    {"compound": "YKKGE [β-End 27–31, C-terminal pentapeptide of β-End 1–31]", "values": [
      {"measurement": "effect of C-terminal peptides on β-End 1–31 and morphine analgesia", "setting": "wild-type mice", "value": "reduced the analgesic activity of β-End 1–31 and morphine"}
    ]},
    {"compound": "^αN-acetyl β-End 1–31: β-End 1–31 acetylated at N terminal Y1, α position", "values": [
      {"measurement": "effect on morphine and β-End 1–31 analgesic potency, 1 pmol", "setting": "1 pmol icv 30 min before morphine and β-End 1–31, wild-type mice", "value": "significant reductions in their analgesic potency"},
      {"measurement": "effect on DAMGO analgesia", "value": "enhanced DAMGO analgesia"},
      {"measurement": "effect on analgesia of the DOR agonists DPDPE and D-Ala^2 Deltorphin II", "value": "neither ^αN-acetyl β-End 1–31 nor S1RA altered the analgesic effects"},
      {"measurement": "icv dose at which the regulatory effects on analgesia reached a maximum", "setting": "icv, persisted at 1 pmol or 1 nmol", "value": "1 to 10", "unit": "fmols"},
      {"measurement": "effect on DAMGO and clonidine analgesia", "setting": "increasing icv doses 20 min before DAMGO (0.1 nmol) or clonidine (150 nmol) icv, wild-type mice", "value": "increased"},
      {"measurement": "effect on morphine and β-End 1–31 analgesia in σ1R−/− mice", "setting": "σ1R−/− mice, icv before the opioids", "value": "not altered"}
    ]},
    {"compound": "β-End 6–31: β-End 1–31 lacking the N-terminal met-enkephalin 1–5 sequence (TSEKSQTPLVTLFKNAIIKNAYKKGE; Beta-endorphin; UniProt P01189 242-267, looked up, fragment)", "values": [
      {"measurement": "effect on β-End 1–31 analgesia, nonphysiological fragments", "value": "not produced"}
    ]},
    {"compound": "β-End 22–31: nonphysiological C-terminal sequence of β-End 1–31 (IIKNAYKKGE; Beta-endorphin; UniProt P01189 258-267, looked up, fragment)", "values": [
      {"measurement": "effect on β-End 1–31 analgesia, nonphysiological fragments", "value": "reduced β-End 1–31 analgesia"}
    ]}
  ]
}
